Read-outs that look alike come from different tables or passages of the source.

Assay [1] deals with T1, human NOP receptor (Homo sapiens, UniProt P41146).
T1 construct: expressed in transfected cells; host or cells: CHO cells stably coexpressing the receptor and chimeric Gαqi5
Put plainly: Calcium mobilization, NOP receptor. The format is cell-based. The settings on record: for NOP pEC50 (CL95%): CHO cells coexpressing human NOP and Gαqi5, Fluo-4 AM, 37 °C, mean of at least three experiments in duplicate, CL95% in brackets; for NOP Emax ± S.E.M.: mean ± SEM of at least three experiments in duplicate. The procedure, abridged: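 CHO cells stably co-expressing the receptor and chimeric Gαqi5 were loaded with 3 μM Fluo-4 AM with probenecid for 30 min at 37 °C. Fluorescence was read on compound addition at 37 °C as maximal change over baseline.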

The target of assay [2] is T2, human mu receptor (Homo sapiens, UniProt P35372).
T2 construct: expressed in transfected cells; host or cells: CHO cells stably coexpressing the receptor and chimeric Gαqi5
Put plainly: Calcium mobilization, mu opioid receptor. The format is cell-based. The settings on record: percent over the baseline fluorescence, mean ± SEM of at least three experiments in duplicate, SEM.

Assay [3] concerns the target T1, human NOP receptor. Put plainly: Dynamic mass redistribution (DMR), NOP receptor. The format is cell-based. The method, then:
CHO cells stably expressing the human NOP and mu receptors were kindly provided by D.G. Lambert (University of Leicester, UK). Cells were cultured in DMEM/F-12 medium supplemented with 10% FBS, 100 U/mL penicillin, 100 μg/mL streptomycin, and 2 mmol/L L-glutamine. The medium was supplemented with 400 μg/mL G418 to maintain expression. Cells were cultured at 37 °C in 5% CO2 humidified air. For DMR measurements, the label-free EnSight Multimode Plate Reader (Perkin Elmer, MA, US) was used. Cells were seeded 15,000 cells/well in a volume of 30 μL onto fibronectin-coated 384-well DMR microplates and cultured for 20 h to obtain confluent monolayers. Cells were starved in the assay buffer (HBSS with 20 mM HEPES, 0.01% BSA fraction V) for 90 min before the test. Serial dilutions were made in the assay buffer. After reading the baseline, compounds were added in a volume of 10 μL; then, DMR changes were recorded for 60 min. Responses were described as picometer (pm) shifts over time (sec) following subtraction of values from vehicle-treated wells. Maximum picometer (pm) modification (peak) was used to generate concentration response curves. […]
The pharmacological terminology adopted in this paper is consistent with IUPHAR recommendations.[59] All data are expressed as the mean ± standard error of the mean (SEM) of at least three experiments performed in duplicate. […]

Assay [4] deals with T2, human mu receptor. Put plainly: Dynamic mass redistribution (DMR), mu receptor. The format is cell-based. The settings on record: DMR, maximum picometer (pm) modification (peak); mean ± SEM of at least three experiments in duplicate; SEM. The method, then: CHO cells stably expressing the human NOP and mu receptors were kindly provided by D.G. Lambert (University of Leicester, UK). Cells were cultured in DMEM/F-12 medium supplemented with 10% FBS, 100 U/mL penicillin, 100 μg/mL streptomycin, and 2 mmol/L L-glutamine. The medium was supplemented with 400 μg/mL G418 to maintain expression. Cells were cultured at 37 °C in 5% CO2 humidified air. For DMR measurements, the label-free EnSight Multimode Plate Reader (Perkin Elmer, MA, US) was used. Cells were seeded 15,000 cells/well in a volume of 30 μL onto fibronectin-coated 384-well DMR microplates and cultured for 20 h to obtain confluent monolayers. Cells were starved in the assay buffer (HBSS with 20 mM HEPES, 0.01% BSA fraction V) for 90 min before the test. Serial dilutions were made in the assay buffer. After reading the baseline, compounds were added in a volume of 10 μL; then, DMR changes were recorded for 60 min. Responses were described as picometer (pm) shifts over time (sec) following subtraction of values from vehicle-treated wells. Maximum picometer (pm) modification (peak) was used to generate concentration response curves. All the experiments were carried out at 37 °C.
The pharmacological terminology adopted in this paper is consistent with IUPHAR recommendations.[59] All data are expressed as the mean ± standard error of the mean (SEM) of at least three experiments performed in duplicate. […] Concentration-response curves to agonists were fitted to the classical four-parameter logistic nonlinear regression model:
Effect = Baseline + (Emax – Baseline)/(1 + 10^(LogEC50 – Log[compound]) × Hillslope). Curve fitting was performed using PRISM 6.0 (GraphPad Software Inc., San Diego).

In assay [5] the test system is NOP, mu, kappa, delta receptors. Conditions: functional studies with human recombinant receptors; cited from earlier work. The text has this:
Finally, the effects of [Dmt^1,5]N/OFQ(1-13)-NH2 at kappa and delta opioid receptors were investigated. […] Of note, the kappa potency of [Dmt^1,5]N/OFQ(1-13)-NH2 was similar to that shown at NOP and mu receptors. […] Moreover, similar results have b ...

T2 sequence (P35372 whole entry): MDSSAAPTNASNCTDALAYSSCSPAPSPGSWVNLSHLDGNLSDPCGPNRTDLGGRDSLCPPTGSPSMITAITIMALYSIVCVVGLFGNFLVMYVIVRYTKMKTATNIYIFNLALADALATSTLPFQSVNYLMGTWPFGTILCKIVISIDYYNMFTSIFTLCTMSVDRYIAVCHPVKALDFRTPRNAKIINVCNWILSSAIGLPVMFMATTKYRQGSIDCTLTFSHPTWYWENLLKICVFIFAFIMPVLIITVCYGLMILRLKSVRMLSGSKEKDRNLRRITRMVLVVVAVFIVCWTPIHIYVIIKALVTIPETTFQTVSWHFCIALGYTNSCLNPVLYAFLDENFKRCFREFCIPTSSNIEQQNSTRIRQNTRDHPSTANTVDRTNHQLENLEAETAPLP
T1 sequence (P41146 whole entry): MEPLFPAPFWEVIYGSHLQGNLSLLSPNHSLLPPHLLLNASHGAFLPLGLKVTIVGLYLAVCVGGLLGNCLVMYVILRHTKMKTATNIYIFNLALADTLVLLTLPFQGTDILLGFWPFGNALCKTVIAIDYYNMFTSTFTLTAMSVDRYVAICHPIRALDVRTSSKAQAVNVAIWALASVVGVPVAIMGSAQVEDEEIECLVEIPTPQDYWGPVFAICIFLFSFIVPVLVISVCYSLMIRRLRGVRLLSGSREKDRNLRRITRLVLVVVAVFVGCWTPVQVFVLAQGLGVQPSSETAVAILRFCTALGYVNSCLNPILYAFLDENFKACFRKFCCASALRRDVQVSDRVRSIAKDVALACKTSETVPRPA

Take `C[C@@H](NC(=O)[C@@H](N)Cc1ccc(O)cc1)C(=O)N[C@@H](Cc1ccccc1)C(=O)NCC(=O)N[C@@H](Cc1ccc(O)cc1)C(=O)N1CCC[C@H]1C(=O)N[C@@H](CO)C(N)=O` [Compound 2, dermorphin, reference compound]: the “NOP pEC50 (CL95%)” value at human NOP receptor [1] (Table 1 series, FlexStation II) was “inactive”; on human NOP receptor [1] (Table 2 series) it was “inactive”; on human NOP receptor [1] (Table 3 series) it was “inactive”; at human NOP receptor [3] (CHO cells expressing human NOP, label-free EnSight reader, 60 min, 37 °C, mean of at least three experiments in duplicate, CL95% in brackets) it was “inactive”. The “NOP Emax ± S.E.M.” value on human NOP receptor [1] (Table 1 series, maximum change in fluorescence as percent over the baseline fluorescence) is “inactive”; at human NOP receptor [1] (Table 2 series, percent over the baseline fluorescence), “inactive”; on human NOP receptor [1] (Table 3 series, percent over the baseline fluorescence), “inactive”; on human NOP receptor [3] (maximum picometer (pm) modification (peak), mean ± SEM of at least three experiments in duplicate), “inactive”. Besides, the pEC50_NOP entry at human NOP receptor [1] (molecular formula strings CSV, repeats calcium mobilization values of Tables 1-3) was “inactive”. In addition, the Emax at human mu receptor [2] (read-out: mu Emax ± S.E.M, Table 1 series) worked out at 380 ± 15%; on human mu receptor [2] (read-out: mu Emax ± S.E.M., Table 2 series) it was 306 ± 23%; at human mu receptor [2] (read-out: mu Emax ± S.E.M., Table 3 series), 359 ± 18%. For the same compound, the “mu Emax ± S.E.M.” value at human mu receptor [4] was determined as 151 ± 16.
In the case of [Dmt^1]N/OFQ(1-13)-NH2, the “rank order of potency” value in assay [5] was “NOP = mu > kappa > delta”.
